According to US4132738A, “Preparation of 15-deoxy-16-hydroxyprostaglandins” (Miles Laboratories, Inc., priority 1978, dated 1979):

Tests used:
[1] = system: gastric secretion in the rat; assay: Effects on gastric secretion in the rat; type: in vivo; settings: comparison in words
Protocol: A procedure based on that described by Lipman, W. (J. Pharm. Pharmacol., 21: 335 [1968]) was used to assess the influence of test compounds on gastric secretion. Rats of one sex weighing 150 to 200 g were randomly divided into groups of six animals each and fasted for 48 hours previous to the experiments, water being available ad libitum. The animals were anesthetized with ether, the abdomen opened through a midline incision, and the pylorus ligated. Test compounds were diluted from stock solution so as to administer a dose of 1.5 mg/kg in a volume equivalent to 1 ml/kg. Subcutaneous injections were applied immediately after surgery and again 2 hours later, so that a total dose of 3.0 mg/kg was administered. Dilutions were made with phosphate buffer (pH 7.38) as recommended by Lee et al. (Prostaglandins, 3: 29 [1973]) in order to insure adequate stability of drugs at the subcutaneous depot. Each compound was tested in one group of rats; an additional control group received only the vehicle.
Four hours after pyllric ligation the animals were killed with ether, the cardias ligated, and the stomachs removed. The volume of gastric secretion was measured and the contents centrifuged at 5000 rpm for 10 minutes. Total acid in the supernatant was titrated against a 0.1 N sodium hydroxide solution and the amount expressed in mEq.
Volume and total acid values of the treated group were compared with those of the controls […]. Antisecretory activity was scored according to the following scale: […]

[2] = system: blood pressure in the hypertensive rat; assay: Effects on systolic blood pressure in the hypertensive rat; type: in vivo; parameters: key: 0: Not significant at any time interval; 1: Significant at one time interval; 2: Significant at two time intervals; settings: 1 mg/kg intraperitoneal; 2, 4, 6 and 9 hours
Protocol: The acute anithypertensive activity of test compounds was determined in rats made hypertensive by the procedure of Grollman (Proc. Soc. Exper Biol. Med., 57: 102 [1944]). Female rats weighing between 60 and 100 g were anesthetized with ether, the right kidney approached through a flank retroperitoneal incision, decapsulated and tied with a figure-of-eight-ligature. The animals were left to recover and two weeks later were again anesthetized and the contralateral kidney removed. Four weeks after the second operation the rats were subjected to indirect blood pressure measurements and those showing systolic pressure values greater than 160 mmHg were selected for drug testing.
Blood pressure was measured in the tail with an inflatable occluding cuff placed at the base of the extremity and a pulse detector located distally. The cuff was inflated to approximately 300 mmHg and was slowly deflated until pulsations appeared, indicating the level of systolic pressure; diastolic pressure was not recorded by this procedure. All measurements were carried out in unanesthetized, unsedated animals maintained in a warm environment during the recording procedure and for at least 6 hours before. In all cases, three pressure readings were obtained in succession and mean values were calculated thereof.
Experiments were carried out in groups of five hypertensive rats in which systolic pressure was determined immediately before and 2, 4, 6 and 9 hours after intraperiotoneal administration of the test compound at a dose of 1 mg/kg. Drugs were diluted from stock solutions with phosphate buffer (Lee et. al., Prostaglandins, 29 [1973]), so as to inject this quantity in a volume of 1 ml/kg. Changes from control blood pressure values were calculated for each interval both in mmHg and in percent, and evaluated for significance by means of Wilcoxon's signed rank test (Wilcoxon, R. and Wilcox, R. A., "Some Rapid Approximate Statistical Procedures," Lederle Laboratories, Pearl River [1964]).

[3] = system: femoral blood flow in the anesthetized dog; assay: Effects on femoral blood flow in the anesthetized dog; type: in vivo; settings: comparison in words
Protocol: The peripheral vasodilator or constrictor effects of test compounds were determined in mongrel dogs of either sex, weighing between 10 and 20 kg, anesthetized intravenously with 35 mg/kg of pentobarbital sodium. An external iliac artery was dissected immediately above the femoral arch for a length of approximately 5 cm, and a previously calibarated, non-cannulating electromagnetic-flowmeter sensor with a lumen between 2.5 and 3.5 mm was placed snugly around the vessel. Cannulas were placed in a branch of the artery arising distally to the location of the flowmeter sensor for intraarterial drug administrations, in the contralateral femoral artery for systemic blood pressure recording, and in the trachea for artificial respiration with room air. Femoral blood flow and systemic blood pressure were continuously recorded with an electromagnetic flowmeter and pressure transducer, respectively.
After an adequate control period, test compounds were injected intraarterially at one log-spaced doses ranging from 0.001 to 10 mcg, in a volume of 0.5 ml and at 5 to 10 minute intervals. […] The dose changing blood flow by 100 ml/min (ED100 ml/min) was calculated graphically and was used for scoring activity as follows: […]

[4] = system: guinea pig trachea; assay: Effects on the guinea pig trachea in vitro; type: cell-based; settings: comparison in words
Protocol: A male guinea pig weighing 200-500 g was killed by a blow on the head. A 20 mm length of the trachea was dissected from the animal, transferred to a petri dish containing Krebs' solution (aerated with 95% O2 and 5% CO2 at 37° C.), and cut longitudinally opposite the tracheal muscle. The tissue was then cut transversely three quarters of the distance across, a second cut in the opposite direction (again three quarters of the distance across the tissue) was made and the procedure was continued for the whole tissue. The ends of the trachea were pulled to form a zig-zig shaped strip. The tracheal strip used in the experiment was approximately 30 mm when extended under 0.25-0.5 g load in the tissue bath. Cotton thread was tied to one end of the tissue, and linen thread to the other. It was attached via the linen thread to a glass hook in a 5 ml isolated tissue bath containing Krebs' solution (37° C., aerated with a mixture of 95% O2 and 5% CO2). The opposite end was attached via cotton to an isotonic Harvard transducer (Model 386 Heart/Smooth Muscle Transducer, Harvard Apparatus). The load on the transducer lever was small, usually 0.3 g, with a range of 0.25-0.5 g, and the magnification high, 80 fold using an appropriate twin-channel pen recorder. A minimum of thirty minutes was allowed before applying a test compound to the tissue. Test compounds were then applied (in volumes of 0.5 ml) at thirty minute intervals, being in contact with the tissue for five minutes followed by an overflow washout time of twenty seconds.
Prostaglandin E1, at a bath concentration of 0.1 mcg/ml, was then tested repeatedly on two such strips, obtained from two different animals, until two responses (the values of which are recorded) differing by no more than 25% occur. A test compound was then added to the same two strips at bath concentrations of 0.01, 0.1, 1.0, and 10.0 mcg/ml and the effects of the compound were recorded. After the test compound had been evaluated at the highest concentration, PGE1 was retested at 0.1 mcg/ml (and the value of the response recorded) to insure that the viability of the strips was retained during the experiment. The mean of the effects of the test compound on the two strips was then calculated for each concentration, and, biased on the resulting values, an activity value was assigned as follows: […]

Row | SMILES | GAS value, carbinol versus methyl ester analogue [1] | Blood Pressure Hypertensive Rat: activity value [2] | Femoral blood flow value, methyl ester versus carbinol [3] | Guinea pig trachea value, carbinol versus methyl ester analogue [4]
1 | CCCCC(O)C/C=C/[C@H]1[C@H](O)CC(=O)[C@@H]1CCCCCCC(=O)OC (stereo partly drawn) [TR 4705, Methyl 11α, 16RS-dihydroxy-9-oxoprost-13E-en-1-oate, reference compound] | the same | 0 | slightly higher | the same
2 | CCCCC(C)(O)C/C=C/[C@H]1[C@H](O)CC(=O)[C@@H]1CCCCCCC(=O)OC (stereo partly drawn) [TR 4704, Methyl 11α, 16RS-dihydroxy-16-methyl-9-oxoprost-13E-oate, reference compound] | the same | 0 | significantly and undesirably higher | the same
